Patent US8324390B2, “Tetrazole-substituted anthranilamides as pesticides” (Bayer CropScience AG, priority 2008, dated 2012)
Where two headings read alike, the source gives them in different places.

Assays:
[1] = system: caterpillars of the armyworm (Spodoptera frugiperda); test: Spodoptera frugiperda test (SPODFR spray treatment); format: in vivo; settings: Spodoptera frugiperda, foliar, read-out: effect in % (caterpillars killed)
Text: (§1) Solvent: 78.0 parts by weight of acetone

[2] = log P determination by HPLC (EEC Directive 79/831 Annex V.A8); format: physicochemical
Protocol: The measurements were carried out using an Agilent 1100 LC system with a 50*4.6 Zorbax Eclipse C18 1.8 μm column (oven temperature 55° C., flow rate 2.0 ml/min).
The following mobile phases were used:
Mobile phase A: acetonitrile+1000 μl of formic acid/l
Mobile phase B: Millipore water+900 μl of formic acid/l

[3] = system: larvae of the mustard beetle (Phaedon cochleariae); test: Phaedon test (PHAECO spray treatment); settings: Phaedon cochleariae, in Brassica rapa, foliar, read-out: effect in % (beetle larvae killed)
[4] = system: green peach aphid (Myzus persicae); test: Myzus test (MYZUPE spray treatment); format: in vivo; settings: Myzus persicae, foliar, read-out: effect in % (aphids killed)
Text: Solvent: 78 parts by weight of acetone
as §1

[5] = application rate 100 g/ha, maize leaf discs
[6] = application rate 100 g/ha, Chinese cabbage leaf discs

| SMILES | pest or weed control at 100 g/ha ([1]; in Zea mays) [%] | chromatographic logP ([2]; by HPLC according to EEC Directive 79/831 Annex V.A8, read-out: log P) | pest or weed control at 100 g/ha [3] [%] | pest or weed control at 100 g/ha ([4]; in Brassica rapa) [%] | chromatographic logP ([2]; log P) | log P [2] | pest or weed control at 100 g/ha [1, 5] [%] | pest or weed control at 100 g/ha [4, 6] [%] |
| --- | --- | --- | --- | --- | --- | --- | --- | --- |
| Cc1cc(Cl)cc(C(=O)NCC#N)c1NC(=O)c1cc(Cn2nnc(C(F)(F)C(F)(F)C(F)(F)F)n2)nn1-c1ncccc1Cl [Example 8] | ≥ 80 | 3.65 | ≥ 80 | ≥ 80 |  |  |  |  |
| Cc1cc(C#N)cc(C(=O)NC(C)(C)C)c1NC(=O)c1cc(Cn2nnc(C(F)(F)F)n2)nn1-c1ncccc1Cl [Example 15] | ≥ 80 |  | ≥ 80 | ≥ 80 | 3.4 |  |  |  |
| Cc1cc(Cl)cc(C(N)=O)c1NC(=O)c1cc(Cn2nnc(C(F)(F)F)n2)nn1-c1ncccc1Cl [Example 16] |  |  | ≥ 80 | ≥ 80 |  | 2.77 |  |  |
| Cc1cc(C#N)cc(C(N)=O)c1NC(=O)c1cc(Cn2nnc(C(F)(F)F)n2)nn1-c1ncccc1Cl [Example 17] | ≥ 80 |  | ≥ 80 | ≥ 80 | 2.45 |  |  |  |
| Cc1cc(C#N)cc(C(=O)NCC#N)c1NC(=O)c1cc(Cn2nnc(C(F)(F)F)n2)nn1-c1ncccc1Cl [Example 18] | ≥ 80 |  | ≥ 80 | ≥ 80 | 2.61 |  |  |  |
| Cc1cc(Cl)cc(C(=O)NCC#N)c1NC(=O)c1cc(Cn2nnc(C(F)(F)F)n2)nn1-c1ncccc1Cl [Example 19] | ≥ 80 |  | ≥ 80 | ≥ 80 | 2.93 |  |  |  |
| Cc1cc(C#N)cc(C(=O)NC(C)C2CC2)c1NC(=O)c1cc(Cn2nnc(C(F)(F)F)n2)nn1-c1ncccc1Cl (stereo not shown) [Example 20] | ≥ 80 |  | ≥ 80 | ≥ 80 | 3.33 |  |  |  |
| CCNC(=O)c1cc(C#N)cc(C)c1NC(=O)c1cc(Cn2nnc(C(F)(F)F)n2)nn1-c1ncccc1Cl [Example 21] | ≥ 80 |  | ≥ 80 | ≥ 80 | 2.85 |  |  |  |
| CSC[C@H](C)NC(=O)c1cc(C#N)cc(C)c1NC(=O)c1cc(Cn2nnc(C(F)(F)F)n2)nn1-c1ncccc1Cl [Example 22] |  |  |  | ≥ 80 |  | 3.27 |  |  |
| Cc1cc(C#N)cc(C(=O)NCC2CC2)c1NC(=O)c1cc(Cn2nnc(C(F)(F)F)n2)nn1-c1ncccc1Cl [Example 23] | ≥ 80 |  | ≥ 80 | ≥ 80 | 3.13 |  |  |  |
| Cc1cc(C)c(NC(=O)c2cc(Cn3nnc(C(F)(F)F)n3)nn2-c2ncccc2Cl)c(C(N)=O)c1 [Example 80] | ≥ 80 |  |  | ≥ 80 | 2.62 |  |  |  |
| CCNC(=O)c1cc(C)cc(C)c1NC(=O)c1cc(Cn2nnc(C(F)(F)F)n2)nn1-c1ncccc1Cl [Example 81] | ≥ 80 |  |  | ≥ 80 | 3.06 |  |  |  |
| Cc1cc(C)c(NC(=O)c2cc(Cn3nnc(C(F)(F)F)n3)nn2-c2ncccc2Cl)c(C(=O)NC(C)C2CC2)c1 (stereo not shown) [Example 82] | ≥ 80 |  |  | ≥ 80 | 3.59 |  |  |  |
| Cc1cc(C)c(NC(=O)c2cc(Cn3nnnc3C(F)(F)F)nn2-c2ncccc2Cl)c(C(=O)NC(C)C)c1 [Example 179] | ≥ 80 |  |  | ≥ 80 | 2.94 |  |  |  |
| Cc1cc(C#N)cc(C(=O)NCCC(F)(F)F)c1NC(=O)c1cc(Cn2nnnc2C(F)(F)F)nn1-c1ncccc1Cl [Example 188] |  |  | ≥ 80 | ≥ 80 | 2.88 |  |  |  |
| Cc1cc(I)cc(C(=O)NC2CC2)c1NC(=O)c1cc(Cn2nnc(C(F)(F)C(F)(F)F)n2)nn1-c1ncccc1Cl [Example 217] | ≥ 80 |  | ≥ 80 | ≥ 80 |  |  |  |  |
| Cc1cc(I)cc(C(=O)NCC#N)c1NC(=O)c1cc(Cn2nnc(C(F)(F)F)n2)nn1-c1ncccc1C(F)(F)F [Example 240] |  |  | ≥ 80 |  |  |  | ≥ 80 | ≥ 80 |
| CCNC(=O)c1cc(I)cc(C)c1NC(=O)c1cc(Cn2nnc(C(F)(F)F)n2)nn1-c1ncccc1C(F)(F)F [Example 241] |  |  | ≥ 80 |  |  |  | ≥ 80 | ≥ 80 |
| Cc1cc(I)cc(C(=O)NC2CC2)c1NC(=O)c1cc(Cn2nnc(C(F)(F)F)n2)nn1-c1ncccc1C(F)(F)F [Example 246] |  |  | ≥ 80 |  |  |  | ≥ 80 | ≥ 80 |
